According to patent publication US10966426B2, “Herbicidal compositions comprising phenylpyrimidines” (BASF SE, priority 2016, dated 2021):
“And” between values parts separate entries of the source, which are not always exact repeats. Identical values can stand only once.

What was measured:
Format in all cases: in vivo
Brachiaria decumbens [1] = experiment: greenhouse pre-emergence treatment, BRADC; conditions: BRADC
Procedure, shortened: (§1)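 Damage rated on 0 to 100 scale (0 = normal growth, 100 = no emergence or total above-ground kill) after 2-4 weeks at species-dependent 10-25° C or 20-35° C. Seeds sown per species in loamy sand, ~3.0% humus, treated right after sowing with aqueous spray of single actives or 10% emulsion-concentrate mixtures, then hooded; additive expectation by Colby.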

Avena fatua = experiment: greenhouse post-emergence treatment, AVEFA; conditions: AVEFA
Procedure, shortened: (§2)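 Scoring ran on a 0-100 scale, 100 meaning no emergence or destroyed above-ground parts, over a 2-4 week period; Colby formula E=X+Y−(X·Y/100) gave expected mixture effects. Species grew separately in loamy sand (about 3.0% humus) at 10-25° C or 20-35° C, with water as solvent.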

Alopecurus myosuroides = experiment: greenhouse pre-emergence treatment, ALOMY
Procedure, shortened: as §1

Apera spica-venti [2] = experiment: greenhouse pre-emergence treatment, APESV; conditions: solo, 20 DAT
Procedure, shortened: as §1

Lolium multiflorum = experiment: greenhouse post-emergence treatment, LOLMU; conditions: LOLMU
Procedure, shortened: as §2

Setaria viridis = experiment: greenhouse pre-emergence treatment, SETVI; conditions: SETVI
Procedure, shortened: as §1

Brachiaria decumbens [3] = experiment: greenhouse post-emergence treatment, BRADC; conditions: BRADC
Procedure, shortened: (§3)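 Foliar application to greenhouse-grown plants 3–15 cm tall in humus-containing loamy sand; response assessed on a 0–100 scale after 2–4 weeks, with Colby's E=X+Y−(X·Y/100) as the additive expectation.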

Galium aparine = experiment: greenhouse post-emergence treatment, GALAP; conditions: GALAP
Procedure, shortened: as §3

Papaver rhoeas = experiment: greenhouse pre-emergence treatment, PAPRH; conditions: 20 DAT; for % activity, solo application: Table X6
Procedure, shortened: as §1

Echinocloa crus-galli = experiment: greenhouse pre-emergence treatment, ECHCG; conditions: 20 DAT
Procedure, shortened: as §1

Apera spica-venti [4] = experiment: greenhouse post-emergence treatment, APESV; conditions: APESV, 20 DAT
Procedure, shortened: as §3

[5] = Ex. 5 solo, 62.5 gai/ha, 20 DAT
[6] = Table X13, 20 DAT, solo Ex. 5 31.25 gai/ha
[7] = solo Ex. 5 62.5 gai/ha, 20 DAT, 2nd series of rows
[8] = Table X12, 20 DAT, solo Ex. 5 62.5 gai/ha
[9] = Table X12, 20 DAT, solo Ex. 5 125 gai/ha
[10] = solo Ex. 5 31.25 gai/ha, 20 DAT

## O=C(O)c1nc(C2CC2)ncc1-c1ccccc1Cl [Ex. 5]
Brachiaria decumbens [1]; 62.5 gai/ha, 20 DAT, Table X2
  % activity, solo application: 80%
Brachiaria decumbens [1]; 125 gai/ha, 20 DAT, Table X6
  % activity, solo application: 95%
Brachiaria decumbens [1]; 20 DAT, solo Ex. 5 31.25 gai/ha
  % activity: 20%
Brachiaria decumbens [1]; 20 DAT, solo Ex. 5 62.5 gai/ha
  % activity: 60%
Brachiaria decumbens [1]; 20 DAT, solo Ex. 5 125 gai/ha
  % activity: 70%
Brachiaria decumbens [1]; [5]
  % activity: 60%
Brachiaria decumbens [1]; Ex. 5 solo, 125 gai/ha, 20 DAT
  % activity: 70%
Brachiaria decumbens [1]; [6]
  % activity: 85%
Brachiaria decumbens [1]; solo, 31.25 gai/ha, 20 DAT
  % activity: 55%
Brachiaria decumbens [1]; solo, 62.5 gai/ha, 20 DAT
  % activity: 85%
Avena fatua; 125 gai/ha, 20 DAT, Table X4
  % activity, solo application: 75%
Avena fatua; 125 gai/ha, 20 DAT, Table X5
  % activity, solo application: 70%
Avena fatua; 250 gai/ha, 20 DAT, Table X5
  % activity, solo application: 75%
Avena fatua; 20 DAT, solo Ex. 5 125 gai/ha
  % activity: 85%
Avena fatua; 20 DAT, solo Ex. 5 250 gai/ha
  % activity: 85%
Avena fatua; solo Ex. 5 62.5 gai/ha, 20 DAT
  % activity: 68%
Avena fatua; [7]
  % activity: 75%
Avena fatua; solo Ex. 5 125 gai/ha, 20 DAT
  % activity: 70%
Avena fatua; solo Ex. 5 250 gai/ha, 20 DAT
  % activity: 75% and 70%
Avena fatua; solo Ex. 5 500 gai/ha, 20 DAT
  % activity: 75%
Avena fatua; Ex. 5 solo, 62.5 gai/ha, 21 DAT
  % activity: 80%
Avena fatua; Ex. 5 solo, 125 gai/ha, 21 DAT
  % activity: 80%
Avena fatua; Ex. 5 solo, 250 gai/ha, 21 DAT
  % activity: 85%
Avena fatua; Table X12, 20 DAT, solo Ex. 5 31.25 gai/ha
  % activity: 70%
Avena fatua; [8]
  % activity: 75% and 80%
Avena fatua; [9]
  % activity: 85%
Avena fatua; Table X12, 20 DAT, solo Ex. 5 250 gai/ha
  % activity: 90%
Avena fatua; solo, 62.5 gai/ha, 20 DAT
  % activity: 70% and 55%
Avena fatua; solo, 125 gai/ha, 20 DAT
  % activity: 75% and 80% and 60%
Avena fatua; solo, 250 gai/ha, 20 DAT
  % activity: 80%
Alopecurus myosuroides; [6]
  % activity: 90%
Alopecurus myosuroides; [10]
  % activity: 90%
Alopecurus myosuroides; solo Ex. 5 62.5 gai/ha, 20 DAT
  % activity: 90%
Apera spica-venti [2]; 31.25 gai/ha
  % activity: 75%
Apera spica-venti [2]; 125 gai/ha
  % activity: 80%
Lolium multiflorum; 125 gai/ha, 20 DAT, Table X4
  % activity, solo application: 80%
Lolium multiflorum; 125 gai/ha, 20 DAT, Table X5
  % activity, solo application: 80%
Lolium multiflorum; 250 gai/ha, 20 DAT, Table X4
  % activity, solo application: 80%
Lolium multiflorum; 21 DAT, solo Ex. 5 125 gai/ha
  % activity: 85%
Lolium multiflorum; 21 DAT, solo Ex. 5 250 gai/ha
  % activity: 85%
Lolium multiflorum; solo Ex. 5 15 gai/ha, 20 DAT, 2nd series of rows
  % activity: 85%
Lolium multiflorum; solo Ex. 5 62.5 gai/ha, 20 DAT
  % activity: 80%
Lolium multiflorum; [7]
  % activity: 80%
Lolium multiflorum; solo Ex. 5 125 gai/ha, 20 DAT
  % activity: 80% and 83%
Lolium multiflorum; solo Ex. 5 250 gai/ha, 20 DAT
  % activity: 85%
Lolium multiflorum; solo Ex. 5 250 gai/ha, 20 DAT, 2nd series of rows
  % activity: 85%
Lolium multiflorum; solo Ex. 5 250 gai/ha, 21 DAT
  % activity: 80%
Lolium multiflorum; solo Ex. 5 500 gai/ha, 20 DAT
  % activity: 85%
Lolium multiflorum; solo Ex. 5 500 gai/ha, 20 DAT, 2nd series of rows
  % activity: 85%
Lolium multiflorum; Table X8, 20 DAT, solo Ex. 5 125 gai/ha
  % activity: 85%
Lolium multiflorum; [9]
  % activity: 85%
Lolium multiflorum; solo, 62.5 gai/ha, 20 DAT
  % activity: 75%
Lolium multiflorum; solo, 125 gai/ha, 20 DAT
  % activity: 80% and 50%
Lolium multiflorum; solo, 250 gai/ha, 20 DAT
  % activity: 80%
Setaria viridis; 31.25 gai/ha, 20 DAT, Table X6
  % activity, solo application: 0%
Setaria viridis; 125 gai/ha, 20 DAT, Table X1
  % activity, solo application: 45%
Setaria viridis; 125 gai/ha, 20 DAT, Table X2
  % activity, solo application: 60%
Setaria viridis; 125 gai/ha, 20 DAT, Table X6
  % activity, solo application: 60%
Setaria viridis; 250 gai/ha, 20 DAT, Table X1
  % activity, solo application: 65%
Setaria viridis; Ex. 5 solo, 125 gai/ha, 20 DAT
  % activity: 50%
Setaria viridis; 20 DAT, solo Ex. 5 62.5 gai/ha
  % activity: 30%
Setaria viridis; 20 DAT, solo Ex. 5 125 gai/ha
  % activity: 50%
Setaria viridis; [10]
  % activity: 35%
Setaria viridis; solo Ex. 5 125 gai/ha, 20 DAT
  % activity: 45%
Setaria viridis; Table X9, 21 DAT, solo Ex. 5 125 gai/ha
  % activity: 50%
Setaria viridis; [6]
  % activity: 20%
Setaria viridis; Table X13, 20 DAT, solo Ex. 5 62.5 gai/ha
  % activity: 35%
Setaria viridis; solo, 31.25 gai/ha, 20 DAT
  % activity: 10%
Setaria viridis; solo, 62.5 gai/ha, 21 DAT
  % activity: 45%
Setaria viridis; solo, 125 gai/ha, 20 DAT
  % activity: 45%
Setaria viridis; solo, 125 gai/ha, 21 DAT
  % activity: 60%
Setaria viridis; solo, 250 gai/ha, 21 DAT
  % activity: 65%
Brachiaria decumbens [3]; 125 gai/ha, 20 DAT, Table X5
  % activity, solo application: 50%
Brachiaria decumbens [3]; 125 gai/ha, 20 DAT, Table X7
  % activity, solo application: 65%
Brachiaria decumbens [3]; 250 gai/ha, 20 DAT, Table X3
  % activity, solo application: 60%
Brachiaria decumbens [3]; 20 DAT, solo Ex. 5 62.5 gai/ha
  % activity: 35%
Brachiaria decumbens [3]; 20 DAT, solo Ex. 5 125 gai/ha
  % activity: 40%
Brachiaria decumbens [3]; 20 DAT, solo Ex. 5 125 gai/ha (Table X66)
  % activity: 40%
Brachiaria decumbens [3]; 20 DAT, solo Ex. 5 250 gai/ha
  % activity: 60%
Brachiaria decumbens [3]; 21 DAT, solo Ex. 5 125 gai/ha
  % activity: 60%
Brachiaria decumbens [3]; 21 DAT, solo Ex. 5 250 gai/ha
  % activity: 70%
Brachiaria decumbens [3]; solo Ex. 5 62.5 gai/ha, 20 DAT
  % activity: 30% and 45%
Brachiaria decumbens [3]; solo Ex. 5 125 gai/ha, 20 DAT
  % activity: 50%
Brachiaria decumbens [3]; solo Ex. 5 250 gai/ha, 20 DAT
  % activity: 60%
Brachiaria decumbens [3]; solo, 62.5 gai/ha, 20 DAT
  % activity: 45%
Brachiaria decumbens [3]; solo, 250 gai/ha, 20 DAT
  % activity: 60%
Galium aparine; 125 gai/ha, 20 DAT, Table X4
  % activity, solo application: 0%
Galium aparine; 125 gai/ha, 20 DAT, Table X5
  % activity, solo application: 0%
Galium aparine; 250 gai/ha, 20 DAT, Table X4
  % activity, solo application: 30%
Galium aparine; 250 gai/ha, 20 DAT, Table X5
  % activity, solo application: 0%
Galium aparine; Ex. 5 solo, 31.25 gai/ha, 21 DAT
  % activity: 10%
Galium aparine; [5]
  % activity: 0%
Galium aparine; Ex. 5 solo, 250 gai/ha, 21 DAT
  % activity: 25%
Galium aparine; solo Ex. 5 62.5 gai/ha, 20 DAT
  % activity: 0%
Galium aparine; solo Ex. 5 125 gai/ha, 20 DAT
  % activity: 0%
Galium aparine; solo Ex. 5 125 gai/ha, 21 DAT
  % activity: 0%
Galium aparine; Table X8, 20 DAT, solo Ex. 5 250 gai/ha
  % activity: 20%
Galium aparine; [8]
  % activity: 0%
Galium aparine; [9]
  % activity: 0%
Galium aparine; solo, 62.5 gai/ha, 20 DAT
  % activity: 0%
Galium aparine; solo, 125 gai/ha, 20 DAT
  % activity: 0%
Galium aparine; solo, 250 gai/ha, 20 DAT
  % activity: 30%
Papaver rhoeas; solo Ex. 5 31.25 gai/ha
  % activity: 0%
Papaver rhoeas; 31.25 gai/ha
  % activity, solo application: 20%
Papaver rhoeas; 125 gai/ha
  % activity, solo application: 85%
Papaver rhoeas; solo, 62.5 gai/ha
  % activity: 70%
Echinocloa crus-galli; Ex. 5 solo, 62.5 gai/ha
  % activity: 85%
Echinocloa crus-galli; solo, 31.25 gai/ha
  % activity: 95%
Echinocloa crus-galli; solo, 125 gai/ha
  % activity: 95%
Apera spica-venti [4]; solo Ex. 5 62.5 gai/ha
  % activity: 75%
Apera spica-venti [4]; solo, 62.5 gai/ha
  % activity: 70%
Apera spica-venti [4]; solo, 125 gai/ha
  % activity: 80%
Apera spica-venti [4]; solo, 250 gai/ha
  % activity: 85% and 90%
